The source of these data is patent US10259815B2, “Gabaergic ligands and their uses” (UWM Research Foundation, Inc., priority 2015, dated 2019).

Entries after “also recorded” stand apart in the source; their conditions may differ.

The target of data set [1] is T1, α1, β3, γ2 GABA A receptor (Homo sapiens, UniProt P14867+P18507).
T1 construct: host or cells: HEK-293, stably transfected
Description: FLIPR functional assay, α1 GABAA receptor subtype in HEK-293 cells. The class given is cell-based. The text has this: The FLIPR functional assay is used to determine the EC50 at the α1 and α3 GABAA receptor subtypes. A high EC50 for the α1 subtype would indicate a low chance of adverse effects, including sedation, ataxia, and muscle relaxation. A low α3 EC50 would indicate potential effectiveness as an anxiolytic, antihyperalgesic, and likely an anticonvulsant. See, for example, Liu et al. (Assay. Drug. Dev. Technol. 2008, 6, 781-6) and Joesch et al. (J. Biomol. Screen. 2008, 13, 218-28).
Compounds tested were synthesized internally and solubilized in DMSO at a 10 mM concentration. GABA was purchase from Sigma (#A2129) and prepared at 100 mM in water.
HEK-293 cells were stably transfected with the α1, β3, γ2 GABA A receptor subunits (GenBank accession numbers NM_000806.3, NM_000814.5, and NM_198904.1, respectively) or α3, β3, γ2 (NM_000808 for α3) where obtained from ChanTest Co. (Catalog # CT6216 and CT6218, respectively).
Cells were cultivated in Dulbeco's Modified Eagle's Medium (DMEM, Sigma D5796) supplemented with 10% Fetal Bovine Serum (FBS, Gibco 16000), 0.5 mg/mL Geneticin (Gibco), 0.04 mg/mL Hygromycin B (Gibco), 0.1 mg/mL Zeocin (Gibco) and 20 mM HEPES (Sigma). Cells were grown at 37° C. in a humidified atmosphere of 5% CO2. In the experiments described here frozen cells were used. For this purpose, cells were gown and maintained under confluency during 2-3 weeks and then frozen down at different cell densities using Recovery™ Cell Culture Freezing Medium (Gibco).
18 hours prior to the experiment, cells were quickly thawed at 37° C. and seeded on Poly-D-Lys 384 plates (Corning 356663) at a density of 25,000 cells/well and in 25 μL of complete cell medium as described above.
Membrane potential changes induced by the flux of ions through the receptor were measured as relative fluorescence units (RFU) using the Fluorometric Imaging Plate Reader (FLIPR Tetra®, Molecular Devices) and the FLIPR Membrane Potential Blue Assay kit (Molecular Devices). Prior to the addition of the compounds the medium was removed and cells were loaded with 20 μL of dye prepared in assay buffer composed of Hank's Balanced Salt Solution (HBSS with Ca^+2 and Mg^+2; Gibco 14025) with 20 mM Hepes. After 1 hour of incubation at room temperature (RT), the plate was placed into the FLIPR instrument and experiments were run adding first 10 μL from the 1st addition plate (compound plate) and after a 3 minutes incubation adding 20 μL of the 2nd addition or agonist plate. The response to this last GABA addition was monitored for another 3 minutes. […]
Data Analysis. The difference between the maximum and the minimum (Max-Min) fluorescence reached during the first addition or read interval and the second read interval were used for data analysis (agonist and potentiation, respectively). […]

A further data set deals with Male NIH Swiss mice. Description: Rotorod assay (ataxia). It is filed as in vivo. How it is done:
Male NIH Swiss mice (n=10) were dosed i.p. with vehicle (1% carboxymethyl cellulose) or one of the test compounds (10 or 30 mg/kg) 30 minutes prior to being tested on the rotorod. Mice were placed on a rod for two minutes at 4 revolutions per minute. […] Mice that fell twice failed the testing.
The rotorod assay (FIG. 5) is used to determine the ataxic effects, generally stemming from the α1 subtype, that compounds have in test subjects. Mice are trained to run on a slow, rotating cylinder for two minutes, and failure to stay on the rod may be due to ataxia. […] Each set of compounds were tested against a vehicle.
Male NIH Swiss mice (n=10/group) were trained on a rotorod (Ugo Basile 7650) at 4 r.p.m. for two minutes per training session prior to testing. On test day, mice were dosed i.p. with either vehicle (1% carboxymethyl cellulose) or one of the test compounds (10 or 30 mg/kg) 30 minutes prior to testing.
A general note: The rotarod test checks motor coordination on a turning rod.

The test system of the next data set is Sprague Dawley male rats. Description: Mechanical hyperalgesia (von Frey) in CFA-induced inflammatory pain rat model. To be noted: for mechanical hyperalgesia in CFA-induced inflammatory pain: cumulative i.p. dosing, 3 days after CFA; for selectivity of antihyperalgesic effect in three-assay comparison: versus rate-suppressing and muscle-relaxant activity. The class given is in vivo. How it is done: Raw data (paw withdrawal threshold, expressed in g of von Frey filament) was converted to a maximal possible effect value according the following equation: % MPE=[(test threshold(g)−control threshold(g)/(pre-CFA threshold−control threshold)]×100.
Complete Freund's adjuvant (CFA) contains Mycobacterium butyricum, inducing inflammation and an increase in paw thickness. 0.1 mL of CFA was injected in the right hind paw of Sprague Dawley male rats under isoflurane anaesthesia.
Mechanical hyperalgesia. Mechanical hyperalgesia was measured 3 days after CFA treatment. Rats (n=6) were placed in elevated boxes with a mesh floor. Von Frey filaments (expressed in g) were applied perpendicularly to the hindpaws, starting with the lowest filament (1.4 g) then increased until hindpaw withdrawal was observed. After each measurement, rats received the next dose of drug (every 20 min) until the maximum threshold (26 g) was observed. For the antagonist study, rats were pretreated with the benzodiazepine site antagonist flumazenil (10 min) and then received the next dose of drug (every 20 min) until the pre-CFA threshold was observed.
Drugs. The following drugs were used: HZ166, KRM-II-18B, and KRM-II-81, and were dissolved in a mixture containing 20% Dimethyl sulfoxide (DMSO), 10% Emulphor-620 (Rhodia Inc.), and 70% of 0.9% saline. Flumazenil (purchased from Cayman Chemical Company, MI) was dissolved in a mixture containing 10% ethanol, 40% propylene glycol, and 50% sterile water. Midazolam (Akorn, Inc.) was dissolved in 0.9% saline. Doses were expressed as the weight of the drug in milligrams per kilogram of body weight and drugs were administered intraperitoneally.

T1 sequence (P14867 28-456): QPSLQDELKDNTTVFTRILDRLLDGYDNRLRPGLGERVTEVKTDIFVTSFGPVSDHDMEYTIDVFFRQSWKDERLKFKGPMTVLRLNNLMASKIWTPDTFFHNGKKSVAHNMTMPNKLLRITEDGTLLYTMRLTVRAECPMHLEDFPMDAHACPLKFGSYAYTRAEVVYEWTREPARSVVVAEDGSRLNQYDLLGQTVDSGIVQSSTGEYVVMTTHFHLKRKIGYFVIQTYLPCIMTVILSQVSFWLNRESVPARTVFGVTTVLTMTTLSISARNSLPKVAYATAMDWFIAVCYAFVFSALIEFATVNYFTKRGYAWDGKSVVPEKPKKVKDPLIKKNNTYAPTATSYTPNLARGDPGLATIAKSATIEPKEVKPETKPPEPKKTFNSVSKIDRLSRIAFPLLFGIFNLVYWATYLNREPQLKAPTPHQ
T1 sequence (P28472 26-473 partner): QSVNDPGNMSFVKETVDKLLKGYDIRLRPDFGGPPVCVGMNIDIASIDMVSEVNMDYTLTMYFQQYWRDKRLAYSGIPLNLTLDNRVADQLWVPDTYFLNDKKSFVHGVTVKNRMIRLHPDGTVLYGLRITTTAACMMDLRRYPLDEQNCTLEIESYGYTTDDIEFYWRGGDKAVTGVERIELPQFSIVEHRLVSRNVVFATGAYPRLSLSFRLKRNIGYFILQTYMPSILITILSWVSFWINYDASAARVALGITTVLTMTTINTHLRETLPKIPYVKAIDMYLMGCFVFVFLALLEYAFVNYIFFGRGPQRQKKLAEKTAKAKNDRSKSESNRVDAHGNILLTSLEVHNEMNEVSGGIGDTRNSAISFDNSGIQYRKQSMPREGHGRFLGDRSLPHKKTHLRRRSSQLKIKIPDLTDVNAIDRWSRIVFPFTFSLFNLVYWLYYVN
T1 sequence (P18507 40-475): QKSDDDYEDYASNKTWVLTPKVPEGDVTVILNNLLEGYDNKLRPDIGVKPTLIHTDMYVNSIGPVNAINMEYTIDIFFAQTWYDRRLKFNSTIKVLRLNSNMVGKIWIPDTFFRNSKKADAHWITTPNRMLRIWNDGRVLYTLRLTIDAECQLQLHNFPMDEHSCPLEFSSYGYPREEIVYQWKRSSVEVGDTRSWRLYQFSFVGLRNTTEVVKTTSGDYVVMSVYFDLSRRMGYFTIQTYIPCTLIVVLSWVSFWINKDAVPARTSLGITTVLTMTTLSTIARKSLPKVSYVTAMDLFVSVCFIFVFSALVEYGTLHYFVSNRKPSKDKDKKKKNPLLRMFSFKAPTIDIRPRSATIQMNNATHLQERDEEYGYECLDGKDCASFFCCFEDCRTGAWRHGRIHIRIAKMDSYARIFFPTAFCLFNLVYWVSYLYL

The EC50 is the concentration that produces a half-maximal response. As for `C#Cc1ccc2c(c1)C(c1ccccc1F)=NCc1c(-c3cnco3)ncn1-2` [KRM-II-18B, 5-(8-Ethynyl-6-(2-fluorophenyl)-4H-benzo[f]imidazo[1,5-a][1,4]diazepin-3-yl)oxazole], in data set [1], the EC50 was above 20 µM. Further, in the data set with Male NIH Swiss mice (30 mg/kg i.p., 30 minutes prior, 4 r.p.m., two minutes), the “rotorod performance at 30 mg/kg” value is recorded as “failed multiple times”. In the data set on Sprague Dawley male rats, the “mechanical hyperalgesia in CFA-induced inflammatory pain” value was “much more active against hyperalgesia; also recorded: dose-dependently attenuated mechanical hyperalgesia” and the “selectivity of antihyperalgesic effect in three-assay comparison” value was “selectively produce antihyperalgesic effect”.
As to `C#Cc1ccc2c(c1)C(c1ccccn1)=NCc1c(-c3cnco3)ncn1-2` [KRM-II-81, 5-(8-Ethynyl-6-(pyridin-2-yl)-4H-benzo[f]imidazo[1,5-a][1,4]diazepin-3-yl)oxazole], the EC50 in data set [1] is above 20 µM. The “ataxic / sedative effects in rotarod assay” value with Male NIH Swiss mice (10 or 30 mg/kg i.p.) was “less sedative effects than HZ-166; also recorded: no significant ataxic concerns”. Besides, in the data set with Sprague Dawley male rats, the “mechanical hyperalgesia in CFA-induced inflammatory pain” value is “much more active against hyperalgesia; also recorded: dose-dependently attenuated mechanical hyperalgesia” and the “selectivity of antihyperalgesic effect in three-assay comparison” value was “selectively produce antihyperalgesic effect”.
